Data set [1] in a line: Assay (IV) determination of solubility. The data set is classed as physicochemical. As for the experimental part:
Assay (IV)—Determination of Solubility
The mimylin peptide was dissolved in water at ˜500 nmol/ml and mixed 1:1 with a series of buffers (100 mM glycylglycine pH 3.0, 100 mM glycylglycine pH 4.0, 100 mM glycylglycine pH 5.0, 100 mM bistrispropane pH 6.0, 100 mM bistrispropane pH 6.5, 100 mM bistrispropane pH 7.0, 100 mM bistrispropane pH 7.5, 100 mM bistrispropane pH 8.0).

A short description of data set [2]: Assay (IX) pK, T½ in mini-pig. The data set is classed as in vivo, Göttingen mini-pigs. The settings on record: i.v. In a few lines:
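Female Göttingen mini-pigs (5–12 months, 15–35 kg, fed freely) received a single i.v. dose of approximately 5 nmol/kg via central venous catheter, typically n=3. Plasma was sampled from pre-dose to 240 h (sometimes 288 h) and quantified by LC-MS. T½ was derived by non-compartmental analysis from the terminal log-linear slope (ln2/λz).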

The nature of the next data set: Assay (X) pK, T½ in rat. Format: in vivo, Sprague Dawley rats. Conditions: for PK rat iv T½: i.v.; for PK rat sc T½: s.c. As for the experimental part:
Assay (X)—pK—Determination of T½ in Rat
Pharmacokinetic (PK) studies rats were conducted in order to determine the T½ of mimylin peptide after i.v. and s.c. administration.
T½ values of the mimylin derivates of the invention is determined by pharmacokinetic studies in Sprague Dawley male rats, from Taconic Europe and the principles of laboratory animal care are followed.
An acclimatisation period of approximately 7 days was allowed before the animals entered the study. At start of the acclimatisation period the rats were in the weight range of 250-400 g.
The studies were conducted in an animal room which was illuminated to give a cycle of approximately 12 hours light and 12 hours darkness. The animals were group housed and had food and water ad lib. The animals were weighed on the days of dosing.
In the present studies the test substances were administered subcutaneously or intravenously in approximately 20 nmol/kg dose. The animals received a single subcutaneous injection to the neck for subtaneous administration or directly into the tail vein for intravenous administration. Each test substance was given to typically three but in some cases two or four animals.
A full plasma concentration-time profile, employing 8-10 sampling points, was obtained from each animal. In example blood samples were collected according to the following schedule: After subcutaneous or intravenous administration:
At each sampling time, 0.08 to 0.10 ml of blood was drawn from each animal. The blood samples were taken in the sublingual vein via venous puncture and the use of a capillary tube.
The blood samples were stabilised with EDTA. Blood samples were kept on ice for max 20 min. before centrifugation. Plasma was separated using centrifugation (i.e. at 4° C., 10 min., 1500G) and was immediately transferred to Micronic tubes or PCR plates. Approximately 40 μl plasma was transferred and was stored at −20° C. until assayed. The plasma samples were assayed for the content of mimylin compound by LCMS
The plasma concentration-time profiles were analysed by a non-compartmental pharmacokinetic analysis (NCA) using Phoenix WinNonlin 6.3 (Pharsight Inc., Mountain View, Calif., USA). NCA was performed using the individual plasma concentration-time profiles from each animal. T½ is the terminal half-life=In2/λz and was determined from λz, the first order rate constant associated with the terminal (log-linear) portion of the curve, estimated by linear regression of time vs. log concentration.

SMILES strings stand for the structures. Peptide text beside a SMILES is read from it. * marks the point of attachment. C16 diacid = O=C(O)CCCCCCCCCCCCCCC(=O)*; C14 diacid = O=C(O)CCCCCCCCCCCCC(=O)*

On to `CC(C)C[C@H](NC(=O)[C@H](C)NC(=O)[C@H](C)NC(=O)[C@@H](NC(=O)[C@H](CO)NC(=O)[C@H](CC(C)C)NC(=O)[C@H](CCC(=O)O)NC(=O)[C@H](CO)NC(=O)[C@H](C)NC(=O)[C@H](CCC(=O)O)NC(=O)CCCCCCCCCCCCCCC(=O)O)[C@@H](C)O)C(=O)NCC(=O)N[C@@H](CCCNC(=N)N)C(=O)N[C@@H](CC(C)C)C(=O)N[C@@H](CO)C(=O)N[C@@H](C)C(=O)N[C@@H](CCC(=O)O)C(=O)N[C@@H](CC(C)C)C(=O)N[C@@H](Cc1cnc[nH]1)C(=O)N[C@@H](CCC(=O)O)C(=O)N[C@@H](CC(C)C)C(=O)N[C@@H](C)C(=O)N[C@H](C(=O)N[C@@H](CC(C)C)C(=O)N1CCC[C@H]1C(=O)N[C@@H](CCCNC(=N)N)C(=O)N[C@H](C(=O)N[C@@H](CCC(=O)O)C(=O)N[C@H](C(=O)NCC(=O)N1CCC[C@H]1C(=O)N[C@@H](CCC(=O)O)C(=O)N[C@@H](CO)C(=O)N1CCC[C@H]1C(N)=O)[C@@H](C)O)[C@@H](C)O)[C@@H](C)O` [compound 3, [N-terminal(C16 diacid)]mimylin] ({C16 diacid}-EASELSTAALGRLSAELHELATLPRTETGPESP-NH2), for which the Solubility result in data set [1] (pH 3.0), in data set [1] (pH 4.0), in data set [1] (pH 5.0), in data set [1] (pH 6.0), in data set [1] (pH 6.5) and in data set [1] (pH 7.0) was “≧200 μM” in each case. Besides, the Solubility result in data set [1] (pH 7.5) and in data set [1] (pH 8.0) was “≧200 μM” throughout. In addition, the “PK mini pig iv T½” value in data set [2] is given as 17 h. For the same compound, the “PK rat iv T½” value in the data set “Assay (X) pK, T½ in rat” amounted to 3 h. The “PK rat sc T½” value in “Assay (X) pK, T½ in rat” was 3 h.
As to `CC(C)C[C@H](NC(=O)[C@H](C)NC(=O)[C@H](C)NC(=O)[C@@H](NC(=O)[C@H](CO)NC(=O)[C@H](CC(C)C)NC(=O)[C@H](CCC(=O)O)NC(=O)[C@H](CO)NC(=O)[C@H](C)NC(=O)[C@H](CCC(=O)O)NC(=O)CCCCCCCCCCCCC(=O)O)[C@@H](C)O)C(=O)NCC(=O)N[C@@H](CCCNC(=N)N)C(=O)N[C@@H](CC(C)C)C(=O)N[C@@H](CO)C(=O)N[C@@H](C)C(=O)N[C@@H](CCC(=O)O)C(=O)N[C@@H](CC(C)C)C(=O)N[C@@H](Cc1cnc[nH]1)C(=O)N[C@@H](CCC(=O)O)C(=O)N[C@@H](CC(C)C)C(=O)N[C@@H](C)C(=O)N[C@H](C(=O)N[C@@H](CC(C)C)C(=O)N1CCC[C@H]1C(=O)N[C@@H](CCCNC(=N)N)C(=O)N[C@H](C(=O)N[C@@H](CCC(=O)O)C(=O)N[C@H](C(=O)NCC(=O)N1CCC[C@H]1C(=O)N[C@@H](CCC(=O)O)C(=O)N[C@@H](CO)C(=O)N1CCC[C@H]1C(N)=O)[C@@H](C)O)[C@@H](C)O)[C@@H](C)O` [Ex. #4, [N-terminal(C14 diacid)]mimylin] ({C14 diacid}-EASELSTAALGRLSAELHELATLPRTETGPESP-NH2), the Solubility result in data set [1] (pH 3.0), in data set [1] (pH 4.0), in data set [1] (pH 5.0), in data set [1] (pH 6.0), in data set [1] (pH 6.5) and in data set [1] (pH 7.0) was “≧200 μM” each time. Moreover, the Solubility result in data set [1] (pH 7.5) and in data set [1] (pH 8.0) was “≧200 μM” in each case. Moreover, the “PK mini pig iv T½” value in data set [2] worked out at 2 h. In the data set “Assay (X) pK, T½ in rat”, the “PK rat iv T½” value is 3 h. Further, in the data set “Assay (X) pK, T½ in rat”, the “PK rat sc T½” value is 3 h.

The values are drawn from US9593149B2, “Amylin and calcitonin receptor agonist” (Novo Nordisk A/S, priority 2014, dated 2017).
